# According to patent publication US20070128217A1 (priority 2003, published 2007):
# Key:
# [1] = tested on: control sera (pooled serum of ten healthy LUMC hospital workers; commercial negative donor pooled serum from the Dutch bloodbank); assay type: binding, human; design: Binding of Control serum LUMC to linear peptides / Binding of Control serum Blood-bank to linear peptides / Binding of Control serum LUMC to looped peptides / Binding of Control Serum Blood-Bank to Looped peptides / Binding of Control serum LUMC to linear peptides of the protein M of SARS-CoV Urbani / Binding of Control serum Blood-bank to linear peptides of the protein M of SARS-CoV Urbani / Binding of Control serum LUMC to looped peptides of the protein M of SARS-CoV Urbani / Binding of Control Serum Blood-Bank to Looped peptides of the protein M of SARS-CoV Urbani: unit not given here
# [2] = tested on: rabbit serum obtained by immunizing a rabbit with the SARS-CoV strain Frankfurt 1; assay type: binding; design: Binding of a rabbit serum to linear peptides / Binding of a rabbit serum to looped peptides / Rabbit serum linear peptides / Rabbit serum looped peptides / Binding of a rabbit serum to linear peptides of protein N of SARS-CoV Urbani (Rabbit serum linear peptides) / Binding of a rabbit serum to looped/cyclic peptides of protein N of SARS-CoV Urbani (Rabbit serum looped peptides): unit not given here
# [3] = tested on: antibodies in sera from SARS patients (sera 1a, 1b, 2, 6, 37, 62, London, SARS-yellow, SARS-green); assay type: binding, human; design: Binding of serum 6 to linear peptides of protein X1 of SARS-CoV Urbani / Binding of serum 37 to linear peptides of protein X1 of SARS-CoV Urbani / Binding of serum 6 to looped/cyclic peptide (PEPSCAN-ELISA) / Binding of serum 37 to looped/cyclic peptide (PEPSCAN-ELISA) / Binding of serum 37 to looped/cyclic peptides of protein X1 of SARS-CoV Urbani / Binding of serum 6 to linear peptides of protein X2 / Binding of serum 37 to linear peptides of protein X2 / Binding of serum 37 to looped/cyclic peptides of protein X2 of SARS-CoV Urbani / Binding of serum 6 to linear peptides of protein M of SARS-CoV Urbani / Binding of serum 37 to linear peptides of protein M of SARS-CoV Urbani / Binding of serum 6 to looped/cyclic peptides of protein M of SARS-CoV Urbani / Binding of serum 37 to looped/cyclic peptides of protein M of SARS-CoV Urbani / Binding of serum 6 to linear peptides of protein X3 of SARS-CoV Urbani / Binding of serum 37 to linear peptides of protein X3 of SARS-CoV Urbani / Binding of serum 37 to looped/cyclic peptides of protein X3 of SARS-CoV Urbani / Binding of serum 6 to linear peptides of protein X4 of SARS-CoV Urbani / Binding of serum 37 to linear peptides of protein X4 of SARS-CoV Urbani / Binding of serum 37 to looped/cyclic peptides of protein X4 of SARS-CoV Urbani / Binding of serum 6 to linear peptides of protein X5 of SARS-CoV Urbani / Binding of serum 37 to linear peptides of protein X5 of SARS-CoV Urbani / Binding of serum 37 to looped/cyclic peptides of protein X5 of SARS-CoV Urbani / Binding of serum 6 to linear peptides of protein N of SARS-CoV Urbani / Binding of serum 37 to linear peptides of protein N of SARS-CoV Urbani / Binding of serum 6 to linear peptide (PEPSCAN-ELISA) / Binding of serum 1a to looped/cyclic peptides of protein N of SARS-CoV Urbani / Binding of serum 1b to looped/cyclic peptides of protein N of SARS-CoV Urbani / Binding of serum 2 to looped/cyclic peptides of protein N of SARS-CoV Urbani / Binding of serum 6 to looped/cyclic peptides of protein N of SARS-CoV Urbani / Binding of serum 37 to looped/cyclic peptides of protein N of SARS-CoV Urbani / Binding of serum 62 to looped/cyclic peptides of protein N of SARS-CoV Urbani / Binding of serum London to looped/cyclic peptides of protein N of SARS-CoV Urbani / Binding of serum SARS-green to looped/cyclic peptides of protein N of SARS-CoV Urbani: unit not given here
sequence,measurement,setting,value
PPNVQIHTIDGSSGV,Binding of Control Serum Blood-Bank to Looped peptides,[1],0.5
same,Binding of Control serum Blood-bank to linear peptides,[1],0.5
same,Binding of Control serum LUMC to linear peptides,[1],0.5
same,Binding of Control serum LUMC to looped peptides,[1],0.7
same,Binding of a rabbit serum to linear peptides,[2],0.1
same,Binding of a rabbit serum to looped peptides,[2],0.5
same,Binding of serum 1a to linear peptides of protein X1 of SARS-CoV Urbani,[3],0.6
same,Binding of serum 1a to looped/cyclic peptides of protein X1 of SARS-CoV Urbani,[3],0.5
same,Binding of serum 1b to linear peptides of protein X1 of SARS-CoV Urbani,[3],0.5
same,Binding of serum 1b to looped/cyclic peptides of protein X1 of SARS-CoV Urbani,[3],0.4
same,Binding of serum 2 to linear peptides of protein X1 of SARS-CoV Urbani,[3],0.4
same,Binding of serum 2 to looped/cyclic peptides of protein X1 of SARS-CoV Urbani,[3],0.3
same,Binding of serum 6 to linear peptides of protein X1 of SARS-CoV Urbani,[3],0.4
same,Binding of serum 6 to looped/cyclic peptides of protein X1 of SARS-CoV Urbani,[3],0.4
same,Binding of serum 37 to linear peptides of protein X1 of SARS-CoV Urbani,[3],0.7
same,Binding of serum 37 to looped/cyclic peptides of protein X1 of SARS-CoV Urbani,[3],0.6
same,Binding of serum 62 to linear peptides of protein X1 of SARS-CoV Urbani,[3],0.6
same,Binding of serum 62 to looped/cyclic peptides of protein X1 of SARS-CoV Urbani,[3],0.5
same,Binding of serum London to linear peptides of protein X1 of SARS-CoV Urbani,[3],0.3
same,Binding of serum London to looped/cyclic peptides of protein X1 of SARS-CoV Urbani,[3],0.2
same,Binding of serum SARS-green to linear peptides of protein X1 of SARS-CoV Urbani,[3],0.3
same,Binding of serum SARS-green to looped/cyclic peptides of protein X1 of SARS-CoV Urbani,[3],0.4
same,Binding of serum SARS-yellow to linear peptides of protein X1 of SARS-CoV Urbani,[3],0.4
same,Binding of serum SARS-yellow to looped/cyclic peptides of protein X1 of SARS-CoV Urbani,[3],0.3
PVTLACFVLAAVYRI,Binding of Control Serum Blood-Bank to Looped peptides of the protein M of SARS-CoV Urbani,[1],0.6
same,Binding of Control serum Blood-bank to linear peptides of the protein M of SARS-CoV Urbani,[1],0.5
same,Binding of Control serum LUMC to linear peptides of the protein M of SARS-CoV Urbani,[1],0.2
same,Binding of Control serum LUMC to looped peptides of the protein M of SARS-CoV Urbani,[1],0.7
same,Rabbit serum linear peptides,[2],0.4
same,Rabbit serum looped peptides,[2],0.3
same,Binding of serum 1a to linear peptides of protein M of SARS-CoV Urbani,[3],0.7
same,Binding of serum 1a to looped/cyclic peptides of protein M of SARS-CoV Urbani,[3],0.7
same,Binding of serum 1b to linear peptides of protein M of SARS-CoV Urbani,[3],0.5
same,Binding of serum 1b to looped/cyclic peptides of protein M of SARS-CoV Urbani,[3],0.6
same,Binding of serum 2 to linear peptides of protein M of SARS-CoV Urbani,[3],0.5
same,Binding of serum 2 to looped/cyclic peptides of protein M of SARS-CoV Urbani,[3],0.6
same,Binding of serum 6 to linear peptides of protein M of SARS-CoV Urbani,[3],0.3
same,Binding of serum 6 to looped/cyclic peptides of protein M of SARS-CoV Urbani,[3],0.7
same,Binding of serum 37 to linear peptides of protein M of SARS-CoV Urbani,[3],0.6
same,Binding of serum 37 to looped/cyclic peptides of protein M of SARS-CoV Urbani,[3],0.7
same,Binding of serum 62 to linear peptides of protein M of SARS-CoV Urbani,[3],0.7
same,Binding of serum 62 to looped/cyclic peptides of protein M of SARS-CoV Urbani,[3],0.7
same,Binding of serum London to linear peptides of protein M of SARS-CoV Urbani,[3],0.3
same,Binding of serum London to looped/cyclic peptides of protein M of SARS-CoV Urbani,[3],0.2
same,Binding of serum SARS-green to linear peptides of protein M of SARS-CoV Urbani,[3],0.2
same,Binding of serum SARS-green to looped/cyclic peptides of protein M of SARS-CoV Urbani,[3],0.2
same,Binding of serum SARS-yellow to linear peptides of protein M of SARS-CoV Urbani,[3],0.0
same,Binding of serum SARS-yellow to looped/cyclic peptides of protein M of SARS-CoV Urbani,[3],0.6
